Key:
[1] = molecular target: T1, 4-hydroxyphenylpyruvate dioxygenase (Sus scrofa, UniProt Q02110); assay: Inhibition of 4-hydroxyphenylpyruvate dioxygenase of purified pig liver by enol-borate method
[2] = molecular target: T1, 4-hydroxyphenylpyruvate dioxygenase; assay: In vitro inhibition of 4-hydroxyphenylpyruvate dioxygenase obtained from purified pig liver by enol-borate method

T1 sequence (Q02110 whole entry): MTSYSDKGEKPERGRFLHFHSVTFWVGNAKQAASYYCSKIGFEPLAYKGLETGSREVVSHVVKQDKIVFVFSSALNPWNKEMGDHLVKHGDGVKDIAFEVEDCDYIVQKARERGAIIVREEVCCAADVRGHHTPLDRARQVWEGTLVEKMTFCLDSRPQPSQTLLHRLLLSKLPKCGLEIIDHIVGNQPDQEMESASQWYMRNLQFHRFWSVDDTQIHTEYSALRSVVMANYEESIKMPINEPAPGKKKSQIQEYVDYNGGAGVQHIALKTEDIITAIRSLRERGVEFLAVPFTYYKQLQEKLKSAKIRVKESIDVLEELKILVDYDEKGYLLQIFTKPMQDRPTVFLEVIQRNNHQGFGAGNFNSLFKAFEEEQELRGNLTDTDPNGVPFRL

Row | SMILES | IC50 [1] [µM] | IC50 [2] [µM]
1 | CCC(=O)C1C(=O)CCCC1=O | 17.8 | –
2 | O=C1CCCC(=O)C1C(=O)c1ccccc1C(F)(F)F | 0.25 | –
3 | O=C1CCCC(=O)C1C(=O)c1ccccc1Cl | 0.5 | –
4 | COc1ccccc1C(=O)C1C(=O)CCCC1=O | 11.7 | –
5 | CC(C)C(=O)C1C(=O)CCCC1=O | 93.3 | –
6 | CC(=O)C1C(=O)CCCC1=O | 11.2 | –
7 | O=C1CCCC(=O)C1C(=O)c1ccccc1[N+](=O)[O-] | 0.16 | –
8 | O=C1CCCC(=O)C1C(=O)c1ccccc1 | – | 11.2
9 | Cc1ccccc1C(=O)C1C(=O)CCCC1=O | 3.75 | –
10 | O=C1CCCC(=O)C1C(=O)C1CC1 | 6 | –

The next lines start with the values.

Row | IC50 [1] [µM] | IC50 [2] [µM] | SMILES
11 | 0.76 | – | O=C1CCCC(=O)C1C(=O)c1ccccc1I
12 | 365 | – | O=C1CCCC(=O)C1C(=O)C1CCCCC1
13 | 0.56 | – | O=C1CCCC(=O)C1C(=O)c1ccccc1Br
14 | 0.04 | – | O=C1CCCC(=O)C1C(=O)c1ccc(C(F)(F)F)cc1[N+](=O)[O-] [NITISINONE]

— ChEMBL document CHEMBL1133344, “SAR studies of 2-o-substituted-benzoyl- and 2-alkanoyl-cyclohexane-1,3-diones as inhibitors of 4-hydroxyphenylpyruvate dioxygenase” (Bioorg Med Chem Lett, 2000)
